In the supplement of paper PMC10307832:

Experiments:
Experiment in all cases: relative viability (nuclei count vs DMSO), 5 days (fraction); higher = more cells survive
KIN001-266 + Lapatinib = compound: CCN1CCC(CC1)N2C=C(N=N2)CNC3=CC4=C(C(=CN=C4C(=C3)Cl)C#N)NC5=CC(=C(C=C5)F)Cl [KIN001-266] + CS(=O)(=O)CCNCc1ccc(-c2ccc3ncnc(Nc4ccc(OCc5cccc(F)c5)c(Cl)c4)c3c2)o1 [Lapatinib] (partner 2 µM)
Summary of the method: (§1)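 Cells from lung cancer lines were seeded into 1536-well plates and, one day later, dosed by pin tool. Treatments were either a single drug or a fixed dose of an anchor drug with five library-drug doses (not always all listed) in √10 steps. After 5 days, nuclei were stained in a one-step fixation (final 0.05% Triton X-100, 1% formaldehyde, 1 ug/ml Hoechst) and counted on 4× images, and relative viability is the treated-to-vehicle nuclei ratio, as the median of duplicate plates.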

KIN001-266 + Decitabine = compound: CCN1CCC(CC1)N2C=C(N=N2)CNC3=CC4=C(C(=CN=C4C(=C3)Cl)C#N)NC5=CC(=C(C=C5)F)Cl [KIN001-266] + Nc1ncn([C@H]2C[C@H](O)[C@@H](CO)O2)c(=O)n1 [Decitabine] (partner 2 µM)
Summary of the method: as §1

KIN001-266 + Bortezomib = compound: CCN1CCC(CC1)N2C=C(N=N2)CNC3=CC4=C(C(=CN=C4C(=C3)Cl)C#N)NC5=CC(=C(C=C5)F)Cl [KIN001-266] + CC(C)C[C@H](NC(=O)[C@H](Cc1ccccc1)NC(=O)c1cnccn1)B(O)O [Bortezomib] (partner 0.002 µM)
Summary of the method: as §1

KIN001-266 + AZD7762 = compound: CCN1CCC(CC1)N2C=C(N=N2)CNC3=CC4=C(C(=CN=C4C(=C3)Cl)C#N)NC5=CC(=C(C=C5)F)Cl [KIN001-266] + NC(=O)Nc1cc(-c2cccc(F)c2)sc1C(=O)N[C@H]1CCCNC1 [AZD7762] (partner 0.2 µM)
Summary of the method: as §1

Cell Line | relative viability (KIN001-266 + Lapatinib; first compound 0.08 µM) | relative viability (KIN001-266 + Lapatinib; first compound 0.253 µM) | relative viability (KIN001-266 + Lapatinib; first compound 0.8 µM) | relative viability (KIN001-266 + Lapatinib; first compound 2.53 µM) | relative viability (KIN001-266 + Lapatinib; first compound 8 µM) | relative viability (KIN001-266 + Decitabine; first compound 0.08 µM) | relative viability (KIN001-266 + Decitabine; first compound 0.253 µM) | relative viability (KIN001-266 + Decitabine; first compound 0.8 µM) | relative viability (KIN001-266 + Decitabine; first compound 2.53 µM) | relative viability (KIN001-266 + Decitabine; first compound 8 µM) | relative viability (KIN001-266 + Bortezomib; first compound 0.08 µM) | relative viability (KIN001-266 + Bortezomib; first compound 0.253 µM) | relative viability (KIN001-266 + Bortezomib; first compound 0.8 µM) | relative viability (KIN001-266 + Bortezomib; first compound 2.53 µM) | relative viability (KIN001-266 + Bortezomib; first compound 8 µM) | relative viability (KIN001-266 + AZD7762; first compound 0.08 µM) | relative viability (KIN001-266 + AZD7762; first compound 0.253 µM) | relative viability (KIN001-266 + AZD7762; first compound 0.8 µM) | relative viability (KIN001-266 + AZD7762; first compound 2.53 µM) | relative viability (KIN001-266 + AZD7762; first compound 8 µM)
NCI-H322M | 0.575 | 0.604 | 0.601 | 0.57 | 0.489 | 0.733 | 0.745 | 0.74 | 0.648 | 0.672 | 1.16 | 1.43 | 1.34 | 1.23 | 1.18 | 0.63 | 0.64 | 0.612 | 0.451 | 0.544
NCI-H460 | 0.891 | 0.933 | 1.13 | 1 | 0.954 | 0.483 | 0.477 | 0.475 | 0.433 | 0.438 | 1.01 | 1.18 | 1.16 | 0.988 | 1.06 | 0.543 | 0.679 | 0.681 | 0.554 | 0.524
NCI-H596 | 1.09 | 1.07 | 1.17 | 1.06 | 1.01 | 1.13 | 1.19 | 0.967 | 1.07 | 0.99 | 0.919 | 1.17 | 1.05 | 1.04 | 0.947 | 1.2 | 0.931 | 1.17 | 0.936 | 1.04
NCI-H647 | 1.04 | 1.07 | 1.11 | 0.876 | 0.818 | 0.4 | 0.385 | 0.344 | 0.357 | 0.336 | 1 | 1.03 | 1.14 | 1.07 | 0.935 | 0.432 | 0.366 | 0.568 | 0.431 | 0.434
NCI-H650 | 1.04 | 1.07 | 0.849 | 1.12 | 1.16 | 0.346 | 0.337 | 0.309 | 0.319 | 0.306 | 0.997 | 0.844 | 0.997 | 0.771 | 0.768 | 1.09 | 1.17 | 1 | 1.08 | 1.23
NCI-H727 | 0.821 | 1.1 | 0.806 | 0.805 | 0.537 | 0.9 | 0.954 | 0.744 | 0.755 | 0.643 | 0.843 | 0.893 | 0.889 | 0.864 | 0.514 | 0.514 | 0.554 | 0.518 | 0.494 | 0.649
NCI-H838 | 0.988 | 0.989 | 1.13 | 1.06 | 0.866 | 0.476 | 0.488 | 0.454 | 0.423 | 0.371 | 0.831 | 0.737 | 0.85 | 0.719 | 0.56 | 0.945 | 0.83 | 0.886 | 0.914 | 0.924
NCI-H1355 | 1.1 | 0.924 | 1.02 | 1.04 | 0.938 | 0.365 | 0.352 | 0.357 | 0.374 | 0.346 | 1.23 | 1.23 | 1.1 | 1.26 | 1.18 | 0.771 | 0.734 | 0.73 | 0.556 | 0.521
NCI-H1437 | 0.781 | 0.819 | 0.746 | 0.798 | 0.483 | 0.564 | 0.542 | 0.556 | 0.504 | 0.567 | 0.534 | 0.435 | 0.514 | 0.493 | 0.447 | 1.12 | 1.16 | 1.12 | 1.1 | 0.963
NCI-H1651 | 0.912 | 0.931 | 0.85 | 0.962 | 0.84 | 0.629 | 0.599 | 0.546 | 0.572 | 0.634 | 0.98 | 0.969 | 0.869 | 0.93 | 0.897 | 0.46 | 0.44 | 0.376 | 0.328 | 0.49
NCI-H1666 | 0.804 | 0.646 | 0.671 | 0.646 | 0.509 | 0.806 | 0.737 | 0.662 | 0.725 | 0.754 | 1.03 | 0.826 | 0.668 | 0.785 | 0.686 | 0.921 | 0.799 | 0.744 | 0.826 | 0.767
NCI-H1734 | 1.1 | 1.32 | 1.03 | 0.982 | 1.02 | 0.513 | 0.512 | 0.421 | 0.48 | 0.433 | 1.07 | 0.842 | 0.822 | 0.805 | 0.768 | 0.566 | 0.635 | 0.438 | 0.631 | 0.461
NCI-H1755 | 0.987 | 1.04 | 1.06 | 0.996 | 0.987 | 0.67 | 0.735 | 0.647 | 0.654 | 0.707 | 0.956 | 0.972 | 0.847 | 0.918 | 0.884 | 0.408 | 0.492 | 0.425 | 0.452 | 0.43
NCI-H1792 | 0.894 | 0.916 | 0.86 | 0.925 | 0.853 | 0.543 | 0.562 | 0.508 | 0.522 | 0.463 | 0.962 | 0.927 | 0.879 | 0.917 | 0.948 | 0.825 | 0.66 | 0.738 | 0.902 | 0.516
NCI-H1915 | 0.959 | 0.974 | 1.02 | 1.02 | 0.993 | 0.28 | 0.287 | 0.249 | 0.265 | 0.278 | 0.979 | 0.986 | 0.997 | 0.877 | 0.898 | 0.703 | 0.729 | 0.687 | 0.729 | 0.727
NCI-H1975 | 0.902 | 0.938 | 1.03 | 1.05 | 0.969 | 0.391 | 0.373 | 0.377 | 0.404 | 0.39 | 0.373 | 0.462 | 0.404 | 0.336 | 0.336 | 0.733 | 0.689 | 0.776 | 0.756 | 0.678
